Reference: ChEMBL document CHEMBL3421548, “PMA-SiO2 catalyzed synthesis of indolo[2,3-c]quinolines as potent anti cancer agents” (Bioorg Med Chem Lett, 2015)
Calls of active or inactive are those of the source. The calls are words filed in the database; no cut-off is given here.

Columns and labels:
MCF7 = experiment: Cytotoxicity against human MCF7 cells after 48 hrs by SRB method; assay type: functional, cell-based; conditions: MCF7, 48 h
DU-145 [1] = experiment: Cytotoxicity against human DU145 cells after 48 hrs by SRB method; assay type: functional, cell-based; conditions: DU-145, 48 h
A549 = experiment: Cytotoxicity against human A549 cells after 48 hrs by SRB method; assay type: functional, cell-based; conditions: A549, 48 h
Mycobacterium sp. = experiment: Antimycobacterial activity against Mycobacterium sp.; assay type: functional, organism-based
HeLa = experiment: Cytotoxicity against human HeLa cells after 48 hrs by SRB method; assay type: functional, cell-based
[2] = Cytotoxicity against mouse NIH/3T3 cells after 48 hrs by SRB method; assay type: cell-based; conditions: NIH3T3, 48 h
DU-145 [3] = experiment: Cell cycle arrest in human DU145 cells assessed as accumulation at G2/M phase at 25 uM after 24 hrs by RNase/propidium iodide staining-based flow cytometry (reference value: 13.7%); assay type: functional
DU-145 [4] = experiment: Cell cycle arrest in human DU145 cells assessed as accumulation at S phase at 5 uM after 24 hrs by RNase/propidium iodide staining-based flow cytometry (reference value: 4.24%); assay type: functional
DU-145 [5] = experiment: Cell cycle arrest in human DU145 cells assessed as accumulation at S phase at 25 uM after 24 hrs by RNase/propidium iodide staining-based flow cytometry (reference value: 4.24%); assay type: functional
DU-145 [6] = experiment: Cell cycle arrest in human DU145 cells assessed as accumulation at G2/M phase at 50 uM after 24 hrs by RNase/propidium iodide staining-based flow cytometry (reference value: 13.7%); assay type: functional
DU-145 [7] = experiment: Cell cycle arrest in human DU145 cells assessed as accumulation at S phase at 15 uM after 24 hrs by RNase/propidium iodide staining-based flow cytometry (reference value: 4.24%); assay type: functional
DU-145 [8] = experiment: Cell cycle arrest in human DU145 cells assessed as accumulation at G1 phase at 25 uM after 24 hrs by RNase/propidium iodide staining-based flow cytometry (reference value: 82.57%); assay type: functional
DU-145 [9] = experiment: Cell cycle arrest in human DU145 cells assessed as accumulation at G2/M phase at 15 uM after 24 hrs by RNase/propidium iodide staining-based flow cytometry (reference value: 13.7%); assay type: functional
DU-145 [10] = experiment: Cell cycle arrest in human DU145 cells assessed as accumulation at G1 phase at 10 uM after 24 hrs by RNase/propidium iodide staining-based flow cytometry (reference value: 82.57%); assay type: functional
DU-145 [11] = experiment: Cell cycle arrest in human DU145 cells assessed as accumulation at G2/M phase at 5 uM after 24 hrs by RNase/propidium iodide staining-based flow cytometry (reference value: 13.7%); assay type: functional
DU-145 [12] = experiment: Reduction in NF-kappaB p65 phosphorylation in human DU145 cells at 5 to 25 uM after 24 hrs by Western blotting analysis; assay type: functional, cell-based
DU-145 [13] = experiment: Cell cycle arrest in human DU145 cells assessed as accumulation at G1 phase after 24 hrs by RNase/propidium iodide staining-based flow cytometry; assay type: functional
DU-145 [14] = experiment: Cell cycle arrest in human DU145 cells assessed as accumulation at G1 phase at 50 uM after 24 hrs by RNase/propidium iodide staining-based flow cytometry (reference value: 82.57%); assay type: functional
DU-145 [15] = experiment: Cell cycle arrest in human DU145 cells assessed as accumulation at G1 phase at 15 uM after 24 hrs by RNase/propidium iodide staining-based flow cytometry (reference value: 82.57%); assay type: functional
DU-145 [16] = experiment: Cell cycle arrest in human DU145 cells assessed as accumulation at G1 phase at 5 uM after 24 hrs by RNase/propidium iodide staining-based flow cytometry (reference value: 82.57%); assay type: functional
DU-145 [17] = experiment: Cell cycle arrest in human DU145 cells assessed as accumulation at S phase at 10 uM after 24 hrs by RNase/propidium iodide staining-based flow cytometry (reference value: 4.24%); assay type: functional
DU-145 [18] = experiment: Cell cycle arrest in human DU145 cells assessed as accumulation at S phase at 50 uM after 24 hrs by RNase/propidium iodide staining-based flow cytometry (reference value: 4.24%); assay type: functional
DU-145 [19] = experiment: Effect on NF-kappaB total expression in human DU145 cells at 5 to 25 uM after 24 hrs by Western blotting analysis; assay type: functional, cell-based
DU-145 [20] = experiment: Cell cycle arrest in human DU145 cells assessed as accumulation at G2/M phase at 10 uM after 24 hrs by RNase/propidium iodide staining-based flow cytometry (reference value: 13.7%); assay type: functional
DU-145 [21] = experiment: Cell cycle arrest in human DU145 cells assessed as accumulation at G2/M phase after 24 hrs by RNase/propidium iodide staining-based flow cytometry; assay type: functional

SMILES | IC50 (MCF7) [µM] | IC50 (DU-145 [1]) [µM] | IC50 (A549) [µM] | Activity (Mycobacterium sp.) | IC50 (HeLa) [µM] | IC50 [2] [µM] | further results
CCc1ccc(-c2nc3ccccc3c3c2[nH]c2ccccc23)cc1 | 9.84 | 46.2 | 9.33 | inactive | 19 | 200 | –
CC(C)c1nc2ccccc2c2c1[nH]c1ccccc12 | 20.2 | 43.9 | 18.1 | inactive | 18.2 | > 200 | –
COc1ccc(-c2nc3ccccc3c3c2[nH]c2ccccc23)cc1 | 27.8 | 62 | 23.8 | inactive | 36.1 | 114 | –
c1csc(-c2ccc(-c3nc4ccccc4c4c3[nH]c3ccccc34)s2)c1 | 10.7 | 0.52 | 3.03 | inactive | 6.59 | 89.5 | Activity (DU-145 [3]): 7.89%; Activity (DU-145 [4]): 3.61%; Activity (DU-145 [5]): 2.83%; Activity (DU-145 [6]): 1.89%; Activity (DU-145 [7]): 2.97%; Activity (DU-145 [8]): 89.28%; Activity (DU-145 [9]): 9.6%; Activity (DU-145 [10]): 86.17%; Activity (DU-145 [11]): 12.38%; Activity (DU-145 [12]): Active; Activity (DU-145 [13]): Dose-dependent effect; Activity (DU-145 [14]): 97.58%; Activity (DU-145 [15]): 87.81%; Activity (DU-145 [16]): 84.55%; Activity (DU-145 [17]): 3.79%; Activity (DU-145 [18]): 0.63%; Activity (DU-145 [19]): inactive; Activity (DU-145 [20]): 10.74%
Cc1cn([C@H]2C[C@H](N=[N+]=[N-])[C@@H](c3nc4ccccc4c4c3[nH]c3ccccc34)O2)c(=O)[nH]c1=O | 4.78 | 10.1 | 6.2 | inactive | 17.3 | 63.3 | Activity (DU-145 [3]): 28.22%; Activity (DU-145 [21]): Dose-dependent effect; Activity (DU-145 [4]): 4.16%; Activity (DU-145 [5]): 11.78%; Activity (DU-145 [6]): 39.57%; Activity (DU-145 [7]): 6.53%; Activity (DU-145 [8]): 62.12%; Activity (DU-145 [9]): 19.79%; Activity (DU-145 [10]): 77.6%; Activity (DU-145 [11]): 15.78%; Activity (DU-145 [12]): Active; Activity (DU-145 [14]): 52.07%; Activity (DU-145 [15]): 74.76%; Activity (DU-145 [16]): 80.75%; Activity (DU-145 [17]): 5%; Activity (DU-145 [18]): 9.74%; Activity (DU-145 [19]): inactive; Activity (DU-145 [20]): 18.23%
Fc1cccc(Cl)c1-c1nc2ccccc2c2c1[nH]c1ccccc12 | 13.3 | 14 | 6.35 | inactive | 22.9 | 71.1 | –
Cc1cn([C@H]2C[C@H](N=[N+]=[N-])[C@@H](CO)O2)c(=O)[nH]c1=O [ZIDOVUDINE] | 35 | 34.5 | 16.2 | inactive | 65.5 | > 200 | –
c1ccc2nc(-c3nc4ccccc4c4c3[nH]c3ccccc34)ccc2c1 | 52.6 | 41.5 | 68.4 | inactive | 69.9 | > 200 | –
COc1cccc2c1C(=O)c1c(O)c3c(c(O)c1C2=O)C[C@@](O)(C(=O)CO)C[C@@H]3O[C@H]1C[C@H](N)[C@H](O)[C@H](C)O1 [DOXORUBICIN] | 2.31 | 3.11 | 1.11 | – | 1.43 | 5.91 | –
c1ccc(Oc2ccc(-c3nc4ccccc4c4c3[nH]c3ccccc34)cc2)cc1 | 49.6 | 54 | 13.2 | inactive | 42.8 | > 200 | –
c1ccc(COc2ccc(-c3nc4ccccc4c4c3[nH]c3ccccc34)cc2)cc1 | 58.9 | 70 | 29.9 | inactive | 67.9 | > 200 | –
FC(F)(F)c1ccc(-c2nc3ccccc3c3c2[nH]c2ccccc23)cc1 | 5.07 | 4.19 | 3.71 | inactive | 20.8 | 110 | –
C=CCOc1ccc(-c2nc3ccccc3c3c2[nH]c2ccccc23)cc1 | 11.9 | 23.6 | 6.22 | inactive | 27.5 | > 200 | –
Brc1ccc(-c2nc3ccccc3c3c2[nH]c2ccccc23)cc1 | 23.4 | 18.6 | 17.1 | inactive | 49.3 | > 200 | –
